Measurements as given in patent US20110010780A1, “KCNN3 AS DIAGNOSTIC AND THERAPEUTIC TARGET FOR NEURODEGENERATIVE DISEASES” (EVOTEC NeuroSciences GmbH, priority 2005, published 2011).

Columns and labels:
[1] = tested on: SK-channels; settings: all SK-channels, rather unspecifically; cited from earlier work
[2] = biological target: T1, KCNN3 (Homo sapiens, UniProt Q9UGI6, DUP76-80); assay: Z′-value assessment of the cellular KCNN3 screening assay with fluoxetine; assay type: cell-based; settings: CHO-KCNN3 cells, 100 μM fluoxetine, ionomycin 500 nM
T1 construct: expressed in transfected cells
Procedure: The difference of the fluorescence intensity before addition of ionomycin and after the 120 seconds incubation period was determined where the cells were incubated with fluoxetine. The influx of calcium mediated by ionomycin leads to an opening of the channels and a subsequent hyperpolarization of the resting membrane potential of the cells. […] The mean value of the difference of the fluorescence in presence of ionomycin and fluoxetine in the above experiment is 15912 rfu (standard deviation 3636 rfu) and the mean value of the fluorescence of cells in presence of ionomycin only is 124086 rfu (standard deviation 12615 rfu). The Z′-value is calculated to be 0.55. The Z′ in a second series of experiments was determined to be 0.59.
In order to optimize the KCNN3 assay for screening purposes the Z′-value was assessed (FIG. 16). After 24 hours of incubation the medium was removed from a 384-well plate where CHO-KCNN3 cells were grown. 20 μl dye solution in assay buffer was pipetted onto the cells and afterwards another 20 μl assay buffer only or 20 μl assay buffer plus 100 μM fluoxetine was added. After 30 minutes of incubation at 37 ° C. the plate was transferred to the automated pipetting device/fluorescence reader (FlexStation, Molecular Devices) and 10 μl ionomycin was added at a final concentration of 500 nM. Fluorescence was then measured for 120 sec every 10 sec. […]

[3] = tested on: CHO wild type cells (CHO/−); assay: cellular membrane potential assay in CHO wild type cells (control cell line); assay type: cell-based
Procedure: (§1) The minimum fluorescence values during the following 5 minutes measurement period were subtracted from the maximum signal recorded at the beginning of the experiment and plotted against the concentration of the substances.
The assay makes use of membrane potential sensitive, fluorescent dyes and the activation of the calcium-sensitive KCNN3-potassium channel by the addition of ionomycin. Upon entry of calcium into the cells KCNN3 is activated and thus impacts on the resting membrane potential of the cells which is mirrored by the fluorescent dye. In more detail: CHO cells expressing KCNN3 are cultured on black 384-well plates with clear bottom at a density of 1.5.104 for 24 hours in a humidified incubator at 37° C. The cell culture medium is replaced with assay buffer (1 mM KCl, 2.3 mM CaCl2, 5 mM NaHCO3, 1 mM MgCl2, 154 mM NaCl, 5.5 mM d(+)-glucose, 5 mM HEPES, pH 7.4) containing 5 μM DiBAC4(3). After 30 min of cell loading with the dye at 37° C. fluorescence (excitation 488 nm, emission 538 nm) is read by using a fluorescence plate reader (Flex-station, Molecular Devices). Activation of KCNN3 is achieved by the addition of ionomycin at a 1μM final concentration (FIGS. 14 and 15). […] Fluorescence is monitored for a period of 5 min.

[4] = biological target: T1, KCNN3; assay: cellular KCNN3 screening assay (membrane potential dye DiBAC4(3), ionomycin activation) in CHO/KCNN3 cells; assay type: cell-based; settings: incubated 30 minutes before ionomycin (1 μM final), fluorescence over 5 minutes
Procedure: Upon entry of calcium into the cells the potassium channel is activated and thus impacts on the resting membrane potential of the cells which is mirrored by the fluorescent dye. The minimum fluorescence values measured during the following 5 minutes period were subtracted from the maximum signal recorded at the beginning of the experiment and plotted against the concentration of the substances incubated with the cells. The values obtained in the absence and at the lowest concentrations are indicative of a fully active potassium channel which leads to a hyperpolarization of the membrane potential.
as §1
The assay makes use of membrane potential sensitive, fluorescent dyes and the activation of the calcium-sensitive KCNN3-potassium channel by the addition of ionomycin. Upon entry of calcium into the cells KCNN3 is activated and thus impacts on the resting membrane potential of the cells which is mirrored by the fluorescent dye. […] After 30 min of cell loading with the dye at 37° C. fluorescence (excitation 488 nm, emission 538 nm) is read by using a fluorescence plate reader (Flex-station, Molecular Devices). […] Fluorescence is monitored for a period of 5 min.

c1cc2cc(c1)C[n+]1ccc(c3ccccc31)NCc1ccc(cc1)CNc1cc[n+](c3ccccc13)C2 [UCL-1684]
block of SK-channels, potency [1]: lesser potency compared to the toxins

CNCCC(Oc1ccc(C(F)(F)F)cc1)c1ccccc1 (stereo not shown) [fluoxetine]
mean value of the difference of the fluorescence before addition of ionomycin and after 120 seconds ([2]; 30 minutes, standard deviation 3636 rfu): 15912 rfu
block of the KCNN3 ion channel [2]: the ion channel is blocked

CC[N+](CC)(CC)CCOc1cccc(OCC[N+](CC)(CC)CC)c1OCC[N+](CC)(CC)CC [gallamine]
block of SK-channels, potency [1]: lesser potency compared to the toxins

C[C@H](CCC(=O)O)C[C@H](C)C[C@H](C)C(=O)/C=C(\O)[C@H](C)C[C@H](C)C/C=C/[C@@H](C)[C@@H](O)[C@@H](C)[C@@H](O)C[C@@H]1CC[C@@](C)([C@H]2CC[C@@](C)([C@@H](C)O)O2)O1 [ionomycin]
effect on fluorescence (membrane potential) in CHO wild type cells [3]: no effect

CN1CCN(CCCN2c3ccccc3Sc3ccc(C(F)(F)F)cc32)CC1 [trifluorperatine]
IC50 [4]: 18 µM

COc1cc2c3cc1Oc1cc(ccc1O)C[C@@H]1c4c(cc(OC)c(O)c4Oc4ccc(cc4)C[C@@H]3N(C)CC2)CC[N+]1(C)C [tubocurarine]
block of SK-channels, potency [1]: lesser potency compared to the toxins
